Test results reported in patent publication US7547680B2, “Benzimidazole derivatives and medical uses thereof” (Kissei Pharmaceuticals, Co., Ltd., priority 2004, dated 2009).

Tests used:
[1] = Effects of CNT2 inhibitors on plasma uric acid level (purine tolerance test in rats); assay type: in vivo; details: Male SD-IGS rats; oxonic acid 100 mg/kg s.c.; purine mix 50 mg/kg and test compound 10 mg/kg orally; blood after 1 hour; control group = 100%; Example 28 by HPLC, Examples 89 and 90 by phosphotungstic acid method
Protocol: Male SD-IGS rats (5 weeks old) which were fasted overnight, were subcutaneously treated with oxonic acid (Aldrich; 100 mg/kg), and after 1 hour, purine mix (Adenosine:Inosine:Guanosine=1:1:1 (Adenosine (Sigma), Inosine (WAKO), Guanosine (ICN); 50 mg/kg) and test compounds (10 mg/kg) were orally administrated simultaneously. A control group was treated with oxonic acid and the purine mix, and a group administrated only oxonic acid represented endogenous plasma uric acid value. After 1 hour, blood was collected from the abdominal aorta under ether anesthesia, and the plasma was collected with Venoject II vacuum blood collecting tube (Terumo, VP-FH052). According to the method described in Journal of Chromatography B, Vol. 744 (2000), pp. 129-138, plasma uric acid level in a compound of Example 28 was measured by using HPLC method mentioned below. Plasma uric acid levels in compounds of Examples 89 and 90 were measured by phosphotungstic acid method. Uric acid-Test Wako (WAKO) was used as a measurement reagent. As there is no difference of uric acid values between the HPLC method and the phosphotungstic acid method, uric acid value can be measured by either of both methods (for example, see the above Management guideline, pp. 18-19). The difference between plasma uric acid value in each study group and endogenous plasma uric acid value was calculated on the basis of 100% in the control group.
Theophylline (10 μg) as an internal standard substance was added to 0.1 mL of plasma collected with the above method, and then the samples were deproteinized with 1 mL of methanol. After the samples were centrifuged, the methanol layers were evaporated to dryness under a stream of nitrogen. […] Plasma uric acid concentration was determined by HPLC method according to the condition described below. […]
• Column: Inertsil ODS-2 (4.6×250 mm) • Mobile phase • A solution: acetonitrile • B solution: 10 mM phosphate buffer (pH 3.0) • A linear gradient elution method: A solution 2% to A solution 22% (25 minutes) • Column temperature: 40° C. • Flow rate: 0.5 mL/minute • Detection absorbance: 284 nm

[2] = target: T1, human CNT2 (Homo sapiens, UniProt O43868, I160M/P22L/S45C); test: Inhibitory activity against uptake of adenosine through human CNT2; assay type: cell-based; details: COS-7 cells transiently expressing human CNT2; adenosine 10 μM; NBMPR 10 μM; incubation 30 minutes at 37° C.
T1 construct: expressed in transfected cells; host or cells: COS-7 cells (RIKEN CELL BANK RCB0539), transient lipofection of pCI-neo plasmid
T1 sequence (O43868 1-658 P22L/S45C/I160M): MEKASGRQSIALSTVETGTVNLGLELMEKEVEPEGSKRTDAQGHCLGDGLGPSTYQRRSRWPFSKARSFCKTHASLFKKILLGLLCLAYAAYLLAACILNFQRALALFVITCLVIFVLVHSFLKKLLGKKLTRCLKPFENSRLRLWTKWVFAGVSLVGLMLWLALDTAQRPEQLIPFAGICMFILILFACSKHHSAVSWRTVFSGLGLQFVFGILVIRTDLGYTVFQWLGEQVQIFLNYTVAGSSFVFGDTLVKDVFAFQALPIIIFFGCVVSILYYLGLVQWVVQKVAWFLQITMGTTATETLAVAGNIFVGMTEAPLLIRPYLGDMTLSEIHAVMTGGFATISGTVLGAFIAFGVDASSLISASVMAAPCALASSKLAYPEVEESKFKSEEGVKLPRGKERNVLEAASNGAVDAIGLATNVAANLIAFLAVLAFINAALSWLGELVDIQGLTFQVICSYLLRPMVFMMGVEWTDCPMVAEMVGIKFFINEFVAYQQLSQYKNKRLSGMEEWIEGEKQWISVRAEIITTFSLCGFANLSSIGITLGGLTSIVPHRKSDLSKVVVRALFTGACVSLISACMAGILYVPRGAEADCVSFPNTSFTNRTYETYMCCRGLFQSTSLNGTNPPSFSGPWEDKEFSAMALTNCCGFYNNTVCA
Protocol: Human CNT2 cDNA was obtained by PCR amplification of human kidney cDNA (CLONTECH). PCR reaction solution contained 1 μL cDNA, 2 units Platinum taq DNA polymerase high fidelity (Invitrogen), 1 μM primers (Forward: 5′-AGGAGCCAGAGGGAATCAAT-3′, Reverse: 5′-ACATCTTGGTGAGTGAGTTG-3′). Amplifications for 1 cycle at 94° C. for 2 minutes, 32 cycles at 94° C. for 30 seconds, 58° C. for 30 seconds and 68° C. for 3 minutes were performed and PCR products were ligated into PCR-II-TOPO vector (Invitrogen). PCR reaction was performed with primers containing restriction enzyme sites and the constructed plasmid as a template. PCR reaction solution contained 100 ng plasmid, 2 units Pyrobest DNA polymerase (Takara), 330 nM primers (Forward: 5′-CCGCTCGAGAGGAGCCAGAGGGAATCAAT-3′, Reverse: 5′-CGTCTAGAACATCTTGGTGAGTGAGTTG-3′). Amplifications for 1 cycle at 95° C. for 3 minutes, 15 cycles at 98° C. for 10 seconds, 60° C. for 30 seconds and 72° C. for 1 minute and 1 cycle at 72° C. for 7 minutes were performed, and the PCR products were ligated into PCI-neo mammalian expression vector (Promega). The amino acid sequence of cloned human CNT2 was substituted at P22L (codon, CCG to CTG), S45C (codon, AGC to TGC) and I160M (codon, ATA to ATG) compared to a reported amino acid sequence for human CNT2 (NCBI Accession No. AAC51930).
Expression plasmid of human CNT2 was transfected into COS-7 cells (RIKEN CELL BANK RCB0539) by lipofection method. LIPOFECTAMINE 2000 (Invitrogen) was used as a lipofection reagent. COS-7 cells were diluted in D-MEM (Invitrogen) containing 10% fetal calf serum (Sanko Junyaku) at 5×10^5/1 mL, and seeded into collagen-coated 96-well plates (IWAKI) at 100 μL/well and cultured at 37° C. for 2 hours with 5% CO2 condition. For each well, 0.6 μL of LIPOFECTAMINE 2000 (Invitrogen) was diluted in 25 μL of OPTI-MEM (Invitrogen), and incubated for 7 minutes at room temperature (hereinafter referred to as Lipo 2000-OPTI). For each well, 0.3 μg of plasmid was diluted in 25 μL of OPTI-MEM (Invitrogen), and the solution was added to the Lipo 2000-OPTI and mixed gently and incubated for 30 minutes at room temperature, and was transferred 50 μL for each well to culture medium. The cells were incubated at 37° C. with 5% CO2 condition for 2 days, and used for the uptake assays.
An Uptake buffer was prepared by addition of a mixture of non-radioisotope labeled (Sigma) and ^14C-labeled (Amersham Biosciences) adenosine at the final concentration of 10 μM into a buffer, pH 7.4, containing 140 mM sodium chloride, 2 mM potassium chloride, 1 mM calcium chloride, 1 mM magnesium chloride, 10 mM HEPES 2-[4-(2-hydroxyethyl)-1-piperazinyl]ethane sulfonic acid, 5 mM tris(hydroxymethyl)aminomethane and 5 mM glucose. For measurement of basal uptake, Basal uptake measurement buffer, which contained 140 mM choline chloride instead of sodium chloride was prepared. […]. After removing culture medium of human CNT2 transiently expressing cells, Pretreatment buffer (Basal uptake measurement buffer without adenosine and glucose) was added to wells at 200 μL/well and incubated at 37° C. for 10 minutes. After repeating the same step again, Pretreatment buffer was removed and Measurement buffers and Basal uptake measurement buffer were added at 75 μL/well and incubated at 37° C. After incubation for 30 minutes, Measurement buffers and Basal uptake measurement buffer were removed, and the cells were washed with Washing buffer (Basal uptake measurement buffer with non-radioisotope labeled adenosine at 10 μM) at 200 μL/well twice. The cells were solubilized with 0.2 mol/L sodium hydroxide at 75 μL/well, and the cell lysates were transferred into PicoPlates (Perkin Elmer). After mixing with 150 μL of MicroScint-40 (Perkin Elmer), radioactivity was measured by means of scintillation counter (Perkin Elmer). […]

[3] = target: T2, ENT2 (Homo sapiens, UniProt Q14542); details: ENT2, high concentration of NBMPR; cited from earlier work
T2 sequence (Q14542 1-456): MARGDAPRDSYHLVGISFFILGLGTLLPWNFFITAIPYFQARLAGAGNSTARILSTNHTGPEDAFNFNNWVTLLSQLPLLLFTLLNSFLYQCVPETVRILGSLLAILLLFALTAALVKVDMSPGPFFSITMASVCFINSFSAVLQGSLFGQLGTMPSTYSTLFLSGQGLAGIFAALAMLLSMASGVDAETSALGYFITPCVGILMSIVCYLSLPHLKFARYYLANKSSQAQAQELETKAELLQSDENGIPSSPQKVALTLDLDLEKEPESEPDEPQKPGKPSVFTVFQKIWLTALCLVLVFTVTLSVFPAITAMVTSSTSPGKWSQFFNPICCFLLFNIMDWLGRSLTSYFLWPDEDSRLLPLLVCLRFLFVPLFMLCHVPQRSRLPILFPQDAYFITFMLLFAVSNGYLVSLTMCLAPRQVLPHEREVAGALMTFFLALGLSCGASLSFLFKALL

| SMILES | IC50 [2] [nM] | Percentage of increment of plasma uric acid level (%) [1] | IC50 [3] [nM] |
| --- | --- | --- | --- |
| OCCCCOc1cc(CNc2nc3ccccc3n2[C@@H]2O[C@H](CO)[C@@H](O)[C@H]2O)ccc1-c1ccccc1 [Example 28, 2-[3-(4-Hydroxybutoxy)-4-phenylbenzylamino]-1-(β-D-ribofuranosyl)-1H-benzimidazole] | 46 | 15.2% (p < 0.01) | – |
| CCOc1ccc(CNc2nc3ccccc3n2[C@@H]2O[C@H](CO)[C@@H](O)[C@H]2O)cc1OCCCCO [Example 34, 2-[4-Ethoxy-3-(4-hydroxybutoxy)benzylamino]-1-(β-D-ribofuranosyl)-1H-benzimidazole] | 104 | – | – |
| NC(=O)C1CCN(CCCOc2cccc(CNc3nc4ccccc4n3[C@@H]3O[C@H](CO)[C@@H](O)[C@H]3O)c2)CC1 [Example 89, 2-{3-[3-(4-Carbamoylpiperidin-1-yl)propoxy]benzylamino}-1-(β-D-ribofuranosyl)-1H-benzimidazole] | 55 | 24.9% (p < 0.01) | – |
| C[N+](C)(CCO)CCCOc1cccc(CNc2nc3ccccc3n2[C@@H]2O[C@H](CO)[C@@H](O)[C@H]2O)c1 [Example 93] | 172 | – | – |
| O=[N+]([O-])c1ccc(CSc2ncnc3c2ncn3C2OC(CO)C(O)C2O)cc1 (stereo not drawn) [NBMPR, nitrobenzylthioinosine] | – | – | > 1000 |

Second part, led by results:

| IC50 [2] [nM] | SMILES | Percentage of increment of plasma uric acid level (%) [1] | IC50 [3] [nM] |
| --- | --- | --- | --- |
| 150 | CCCOc1ccc(CNc2nc3ccccc3n2[C@@H]2O[C@H](CO)[C@@H](O)[C@H]2O)cc1OCCCCO [Example 36] | – | – |
| 213 | CCCCOc1ccc(CNc2nc3ccccc3n2[C@@H]2O[C@H](CO)[C@@H](O)[C@H]2O)cc1OCCCCO [Example 37] | – | – |
| 9 | NCCCOc1cc(CNc2nc3ccccc3n2[C@@H]2O[C@H](CO)[C@@H](O)[C@H]2O)ccc1-c1ccccc1 [Example 51, 2-[3-(3-Aminopropoxy)-4-phenylbenzylamino]-1-(β-D-ribofuranosyl)-1H-benzimidazole] | – | – |
| 184 | CN(C)CCCOc1cccc(CNc2nc3ccccc3n2[C@@H]2O[C@H](CO)[C@@H](O)[C@H]2O)c1 [Example 90] | 45.6% (p < 0.05) | – |
